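Five concentrations, 48 hours, 96-well plates. The concentration for full growth arrest is given as TGI.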
How the values were obtained:
Experiment in all cases: growth of human tumour cells (NCI), 48 h
MALME-3M melanoma = tested on: MALME-3M melanoma
A549 NSCLC = tested on: A549 NSCLC
KM20L2 colon = tested on: KM20L2 colon
UACC-62 melanoma = tested on: UACC-62 melanoma
OVCAR-8 ovarian = tested on: OVCAR-8 ovarian
IGROV1 ovarian = tested on: IGROV1 ovarian
SK-OV-3 ovarian = tested on: SK-OV-3 ovarian
M19-MEL melanoma = tested on: M19-MEL melanoma
HL-60(TB) leukemia = tested on: HL-60(TB) leukemia
DMS 273 small cell lung = tested on: DMS 273 small cell lung
SF-295 CNS = tested on: SF-295 CNS
NCI-H23 lung = tested on: NCI-H23 lung
ACHN renal = tested on: ACHN renal
DMS 114 small cell lung = tested on: DMS 114 small cell lung
SNB-75 CNS = tested on: SNB-75 CNS
SK-MEL-5 melanoma = tested on: SK-MEL-5 melanoma
HOP-62 NSCLC = tested on: HOP-62 NSCLC
HOP-92 NSCLC = tested on: HOP-92 NSCLC
RPMI-8226 leukemia = tested on: RPMI-8226 leukemia
UACC-257 melanoma = tested on: UACC-257 melanoma
SK-MEL-28 melanoma = tested on: SK-MEL-28 melanoma
CCRF-CEM leukemia = tested on: CCRF-CEM leukemia
HT29 colon = tested on: HT29 colon
CAKI-1 renal = tested on: CAKI-1 renal
XF 498 CNS = tested on: XF 498 CNS
A498 renal = tested on: A498 renal
RXF 393 renal = tested on: RXF 393 renal
TK-10 renal = tested on: TK-10 renal
SW-620 colon = tested on: SW-620 colon
UO-31 renal = tested on: UO-31 renal
MOLT-4 leukemia = tested on: MOLT-4 leukemia
SK-MEL-2 melanoma = tested on: SK-MEL-2 melanoma
M14 melanoma = tested on: M14 melanoma
OVCAR-5 ovarian = tested on: OVCAR-5 ovarian
LXFL 529 NSCLC = tested on: LXFL 529 NSCLC
SN12C renal = tested on: SN12C renal
SNB-19 CNS = tested on: SNB-19 CNS
NCI-H460 lung = tested on: NCI-H460 lung
NCI-H226 lung = tested on: NCI-H226 lung
SF-268 CNS = tested on: SF-268 CNS
OVCAR-4 ovarian = tested on: OVCAR-4 ovarian
786-0 renal = tested on: 786-0 renal
HCC-2998 colon = tested on: HCC-2998 colon
HCT-15 colon = tested on: HCT-15 colon
OVCAR-3 ovarian = tested on: OVCAR-3 ovarian
NCI-H522 lung = tested on: NCI-H522 lung
K-562 leukemia = tested on: K-562 leukemia
SF-539 CNS = tested on: SF-539 CNS
COLO 205 colon = tested on: COLO 205 colon
SNB-78 CNS = tested on: SNB-78 CNS
KM12 colon = tested on: KM12 colon
LOX IMVI melanoma = tested on: LOX IMVI melanoma
DLD-1 colon = tested on: DLD-1 colon
U251 CNS = tested on: U251 CNS
HOP-18 NSCLC = tested on: HOP-18 NSCLC
EKVX NSCLC = tested on: EKVX NSCLC
HCT-116 colon = tested on: HCT-116 colon

COC(=O)C(Cl)=C1CC1
TGI (MALME-3M melanoma): 46.5 µM | TGI (A549 NSCLC): > 100 µM | TGI (KM20L2 colon): > 100 µM | TGI (UACC-62 melanoma): > 100 µM | TGI (OVCAR-8 ovarian): 97.9 µM | TGI (IGROV1 ovarian): > 100 µM | TGI (SK-OV-3 ovarian): > 100 µM | TGI (M19-MEL melanoma): > 100 µM | TGI (HL-60(TB) leukemia): 51.3 µM | TGI (DMS 273 small cell lung): > 100 µM | TGI (SF-295 CNS): > 100 µM | TGI (NCI-H23 lung): > 100 µM | TGI (ACHN renal): 49.2 µM | TGI (DMS 114 small cell lung): 95.6 µM | TGI (SNB-75 CNS): > 100 µM | TGI (SK-MEL-5 melanoma): 84.9 µM | TGI (HOP-62 NSCLC): > 100 µM | TGI (HOP-92 NSCLC): 29.1 µM | TGI (RPMI-8226 leukemia): 60.4 µM | TGI (UACC-257 melanoma): > 100 µM | TGI (SK-MEL-28 melanoma): 54.3 µM | TGI (CCRF-CEM leukemia): 42.2 µM | TGI (HT29 colon): > 100 µM | TGI (CAKI-1 renal): 32.6 µM | TGI (XF 498 CNS): 88.7 µM | TGI (A498 renal): > 100 µM | TGI (RXF 393 renal): 35.8 µM | TGI (TK-10 renal): > 100 µM | TGI (SW-620 colon): 37.1 µM | TGI (UO-31 renal): 89.9 µM | TGI (MOLT-4 leukemia): 53.4 µM | TGI (SK-MEL-2 melanoma): > 100 µM | TGI (M14 melanoma): 30.5 µM | TGI (OVCAR-5 ovarian): > 100 µM | TGI (LXFL 529 NSCLC): 29.5 µM | TGI (SN12C renal): > 100 µM | TGI (SNB-19 CNS): > 100 µM | TGI (NCI-H460 lung): > 100 µM | TGI (NCI-H226 lung): > 100 µM | TGI (SF-268 CNS): > 100 µM | TGI (OVCAR-4 ovarian): > 100 µM | TGI (786-0 renal): 65.4 µM | TGI (HCC-2998 colon): > 100 µM | TGI (HCT-15 colon): 57.6 µM | TGI (OVCAR-3 ovarian): 65 µM | TGI (NCI-H522 lung): 33.9 µM | TGI (K-562 leukemia): 60.5 µM | TGI (SF-539 CNS): 69.1 µM | TGI (COLO 205 colon): 38.3 µM | TGI (SNB-78 CNS): > 100 µM | TGI (KM12 colon): > 100 µM | TGI (LOX IMVI melanoma): 59.6 µM | TGI (DLD-1 colon): 64.1 µM

COc1ccc2c(c1)OC[C@@H]1c3cc4c(cc3O[C@H]21)OCO4
TGI (MALME-3M melanoma): > 100 µM | TGI (A549 NSCLC): > 100 µM | TGI (KM20L2 colon): > 100 µM | TGI (OVCAR-8 ovarian): > 100 µM | TGI (U251 CNS): > 100 µM | TGI (SK-OV-3 ovarian): > 100 µM | TGI (HL-60(TB) leukemia): > 100 µM | TGI (DMS 273 small cell lung): > 100 µM | TGI (SF-295 CNS): > 100 µM | TGI (NCI-H23 lung): > 100 µM | TGI (HOP-18 NSCLC): > 100 µM | TGI (ACHN renal): > 100 µM | TGI (DMS 114 small cell lung): > 100 µM | TGI (SNB-75 CNS): 69.2 µM | TGI (SK-MEL-5 melanoma): > 100 µM | TGI (HOP-62 NSCLC): > 100 µM | TGI (HOP-92 NSCLC): > 100 µM | TGI (RPMI-8226 leukemia): > 100 µM | TGI (SK-MEL-28 melanoma): > 100 µM | TGI (CCRF-CEM leukemia): > 100 µM | TGI (HT29 colon): > 100 µM | TGI (CAKI-1 renal): > 100 µM | TGI (XF 498 CNS): > 100 µM | TGI (A498 renal): > 100 µM | TGI (RXF 393 renal): > 100 µM | TGI (TK-10 renal): > 100 µM | TGI (SW-620 colon): > 100 µM | TGI (EKVX NSCLC): > 100 µM | TGI (UO-31 renal): > 100 µM | TGI (HCT-116 colon): > 100 µM | TGI (MOLT-4 leukemia): > 100 µM | TGI (SK-MEL-2 melanoma): > 100 µM | TGI (M14 melanoma): > 100 µM | TGI (OVCAR-5 ovarian): > 100 µM | TGI (LXFL 529 NSCLC): > 100 µM | TGI (SNB-19 CNS): > 100 µM | TGI (NCI-H460 lung): > 100 µM | TGI (NCI-H226 lung): > 100 µM | TGI (SF-268 CNS): > 100 µM | TGI (OVCAR-4 ovarian): > 100 µM | TGI (786-0 renal): > 100 µM | TGI (HCC-2998 colon): > 100 µM | TGI (HCT-15 colon): > 100 µM | TGI (OVCAR-3 ovarian): > 100 µM | TGI (NCI-H522 lung): > 100 µM | TGI (K-562 leukemia): > 100 µM | TGI (SF-539 CNS): > 100 µM | TGI (COLO 205 colon): > 100 µM | TGI (SNB-78 CNS): > 100 µM | TGI (KM12 colon): > 100 µM | TGI (LOX IMVI melanoma): > 100 µM | TGI (DLD-1 colon): > 100 µM
